Laboratory results: patent US8912120B2, “Herbicidal compositions comprising 4-amino-3-chloro-5-fluoro-6-(4-chloro-2-fluoro-3-methoxyphenyl) pyridine-2-carboxylic acid or a derivative thereof and synthetic auxin herbicides” (Dow AgroSciences, LLC., priority 2012, dated 2014)
Values joined by “and” are separate entries in the source; they are usually repeats but may differ in a detail not shown here. Equal entries are not always repeated.

Key:
CYPIR = assay: Example II: in-water applied herbicidal mixtures, transplanted paddy rice, CYPIR; type: in vivo, Cyperus iria L. (flatsedge; conditions: 21 DAA
SCPJU = assay: Example II: in-water applied herbicidal mixtures, transplanted paddy rice, SCPJU; type: in vivo, Schoenoplectus juncoides (Japanese bulrush); conditions: for Visual Weed Control (%) - 21 DAA SCPJU Obs / Visual Weed Control (%) - 25 DAA SCPJU Obs: in-water application
Method in brief: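 Herbicides were injected by pipette, one after another, into the standing water of mud-filled pots. Rice had been moved in at the second or third leaf stage four days earlier. Every treatment carried identical acetone and crop oil concentrate levels, and untreated controls received only the solvent blank.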

PANDI = assay: Example III: postemergence foliar-applied herbicidal mixtures, row crop weeds, PANDI; type: in vivo, Panicum dichotomiflorum (fall panicum); conditions: 16 DAA; 3.75 gae/ha
Method: (§1) The plants were grown for 7-31 days (d) in a greenhouse with an approximate 15 hour (h) photoperiod which was maintained at about 23-29° C. during the day and 22-28° C. during the night.

CYPES = assay: Example I: postemergence foliar-applied herbicidal mixtures, direct seeded rice, CYPES; type: in vivo, Cyperus esculentus (yellow nutsedge); conditions: 4.38 gae/ha
Method: (§7) The soil matrix was contained in plastic pots with a volume of 1 quart and a surface area of 83.6 square centimeters (cm^2). […] The plants were grown for 8-22 days in a greenhouse with an approximate 14 h photoperiod which was maintained at about 29° C. during the day and 26° C. during the night. Nutrients (Peters Excel® 15-5-15 5-Ca 2-Mg and iron chelate) were applied in the irrigation solution as needed and water was added on a regular basis. Supplemental lighting was provided with overhead metal halide 1000-Watt lamps as necessary. The plants were employed for testing when they reached the first through fourth true leaf stage.
(§8) Treatments consisted of the acid or esters of 4-amino-3-chloro-5-fluoro-6-(4-chloro-2-fluoro-3-methoxy-phenyl)pyridine-2-carboxylic acid (Compound A), each formulated as an SC (suspension concentrate), and various herbicidal components alone and in combination. Forms of compound A were applied on an acid equivalent basis.
(§9) For treatments comprised of formulated compounds, measured amounts of compounds were placed individually in 25 mL glass vials and diluted in a volume of 1.25% (v/v) Agri-Dex® crop oil concentrated to obtain 12× stock solutions. […] Application solutions were prepared by adding an appropriate amount of each stock solution (e.g., 1 mL) and diluted to the appropriate final concentrations with the addition of 10 mL of an aqueous mixture of 1.25% (v/v) crop oil concentrate so that the final spray solutions contained 1.25+/−0.05% (v/v) crop oil concentrate.
(§10) All stock solutions and applications solutions were visually inspected for compound compatibility prior to application. Spray solutions were applied to the plant material with an overhead Mandel track sprayer equipped with a 8002E nozzles calibrated to deliver 187 L/ha over an application area of 0.503 m^2 at a spray height of 18 to 20 inches (46 to 50 cm) above average plant canopy height. Control plants were sprayed in the same manner with the solvent blank.
(§11) The treated plants and control plants were placed in a greenhouse as described above and watered by sub-irrigation to prevent wash-off of the test compounds. After approximately 3 weeks, the condition of the test plants as compared with that of the untreated plants was determined visually and scored on a scale of 0 to 100 percent where 0 corresponds to no injury or growth inhibition and 100 corresponds to complete kill.
(§12) Colby's equation was used to determine the herbicidal effects expected from the mixtures (Colby, S. R. 1967. Calculation of the synergistic and antagonistic response of herbicide combinations. Weeds 15:20-22).
(§13) The following equation was used to calculate the expected activity of mixtures containing two active ingredients, A and B: Expected=A+B−(A×B/100) […]

CYPDI = assay: Example I: postemergence foliar-applied herbicidal mixtures, direct seeded rice, CYPDI; type: in vivo, Cyperus difformis (smallflower umbrella sedge)
Method: as §7, §8, §9, §10, §11, §12, §13

CENMA = assay: Example V: postemergence herbicidal activity of mixtures in forage crops, CENMA; type: in vivo, Centaurea maculosa (spotted knapweed); conditions: alone, foliar, approximately 21 days
Method in brief: (§2)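 Plants grown from seed or root cuttings in MetroMix 306 (pH 6.0–6.8) for 14–60 days in greenhouse, ~14 h photoperiod, ~28/24 °C day/night. Foliar spray of two-way mixtures of the second herbicide or experimental compounds applied postemergence.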

PANMI = assay: Example III: postemergence foliar-applied herbicidal mixtures, row crop weeds, PANMI; type: in vivo, Panicum miliaceum (wild-proso millet); conditions: 16 DAA
Method: as §1

ISCRU = assay: Example I: postemergence foliar-applied herbicidal mixtures, direct seeded rice, ISCRU; type: in vivo, Ischaemum rugosum (saramollagrass)
Method: as §7, §8, §9, §10, §11, §12
The following equation was used to calculate the expected activity of mixtures containing two active ingredients, A and B: Expected=A+B−(A×B/100)
A=observed efficacy of active ingredient A at the same concentration as used in the mixture.
B=observed efficacy of active ingredient B at the same concentration as used in the mixture.

VIOTR = assay: Example IV: postemergence foliar-applied herbicidal mixtures, cereal crops, VIOTR; type: in vivo, Viola tricolor (wild pansy); conditions: 8.75 gai/ha
Method in brief: (§3)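 Greenhouse plants were grown 7–36 days in potting mix (pH 6.0–6.8) under ~14 h photoperiod at about 18 °C day/17 °C night. Postemergence foliar sprays (12 mL) contained the second cereal herbicide with experimental compound as two- and three-way mixtures.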

STEME = assay: Example IV: postemergence foliar-applied herbicidal mixtures, cereal crops, STEME; type: in vivo, Stellaria media (common chickweed); conditions: alone, 8.75 gai/ha, 20-22 days
Method: (§4) Seeds of the desired test plant species were planted in Sun Gro MetroMix 306 planting mixture, which typically has a pH of 6.0 to 6.8 and an organic matter content of about 30 percent, in plastic pots with a surface area of 103.2 square centimeters (cm^2). […] The plants were grown for 7-36 days in a greenhouse with an approximate 14 hour photoperiod which was maintained at about 18° C. during the day and 17° C. during the night.
(§5) Spray solutions of the second cereal herbicide and experimental compound mixtures were prepared by adding the stock solutions to the appropriate amount of dilution solution to form 12 mL spray solution with active ingredients in two- and three-way combinations.

AMARE = assay: Example IV: postemergence foliar-applied herbicidal mixtures, weed control in cereal crops in the greenhouse, AMARE; type: in vivo, Amaranthus retroflexus (redroot pigweed); conditions: alone, 8.75 gai/ha, 20-22 days
Method in brief: as §3

SINAR = assay: Example V: postemergence herbicidal activity of mixtures in forage crops, SINAR; type: in vivo, Sinapis arvensis (wild mustard); conditions: alone, foliar, approximately 21 days
Method in brief: as §2

SONAR = assay: Example V: postemergence herbicidal activity of mixtures in forage crops, SONAR; type: in vivo, Sonchus arvensis (field sowthistle); conditions: alone, foliar, approximately 21 days
Method in brief: as §2

SOOSS = assay: Example V: postemergence herbicidal activity of mixtures in forage crops, SOOSS; type: in vivo, Solidago L. spec. (goldenrod); conditions: alone, foliar, approximately 21 days
Method: as §4, with “Seeds or root cuttings” for “Seeds”, “MetroMix®” for “MetroMix”, “126.6” for “103.2”, “14-60” for “7-36”, “approximately 28°” for “about 18°”, “24°” for “17°”
(§6) Spray solutions of the second herbicide or experimental compound mixtures were prepared by adding the stock solutions to the appropriate amount of dilution solution to form 12 mL spray solution with active ingredients in two-way combinations.

SORHA = assay: Example III: postemergence foliar-applied herbicidal mixtures, row crop weeds, SORHA; type: in vivo, Sorghum halepense (johnsongrass); conditions: 13 DAA
Method: as §1

CIRAR = assay: Example V: postemergence herbicidal activity of mixtures in forage crops, CIRAR; type: in vivo, Cirsium arvense (Canada thistle); conditions: alone, foliar, approximately 21 days
Method: as §4, with “Seeds or root cuttings” for “Seeds”, “MetroMix®” for “MetroMix”, “126.6” for “103.2”, “14-60” for “7-36”, “approximately 28°” for “about 18°”, “24°” for “17°”
as §6

BRSNN = assay: Example IV: postemergence foliar-applied herbicidal mixtures, cereal crops, BRSNN; type: in vivo, Brassica napus (volunteer canola); conditions: 8.75 gai/ha
Method: as §4, §5

ELEIN = assay: Example III: postemergence foliar-applied herbicidal mixtures, weeds common to row crops such as corn and soybeans (greenhouse), ELEIN; type: in vivo, Eleusine indica (goosegrass)
Method: as §1

TRFRE = assay: Example V: postemergence herbicidal activity of mixtures in forage crops, TRFRE; type: in vivo, Trifolium repens (white clover); conditions: alone, foliar, approximately 21 days
Method: as §4, with “Seeds or root cuttings” for “Seeds”, “MetroMix®” for “MetroMix”, “126.6” for “103.2”, “14-60” for “7-36”, “approximately 28°” for “about 18°”, “24°” for “17°”
as §6

POLCO = assay: Example IV: postemergence foliar-applied herbicidal mixtures, cereal crops, POLCO; type: in vivo, Polygonum convolvulus (wild buckwheat); conditions: 8.75 gai/ha
Method in brief: as §3

COc1c(Cl)ccc(-c2nc(C(=O)O)c(Cl)c(N)c2F)c1F [Compound A Acid, 4-amino-3-chloro-6-(4-chloro-2-fluoro-3-methoxyphenyl)-5-fluoropyridine-2-carboxylic acid]
Visual Weed Control (%) Obs (CYPIR; 8.75 gae/ha): 0%
Visual Weed Control (%) Obs (CYPIR; 17.5 gae/ha): 0%
Visual Weed Control (%) Obs (CYPIR; 35 gae/ha): 95%
Visual Weed Control (%) - 21 DAA SCPJU Obs (SCPJU; 8.75 gae/ha): 15%
Visual Weed Control (%) - 25 DAA SCPJU Obs (SCPJU; 8.75 gae/ha): 65%
Visual Weed Control (%) - 21 DAA SCPJU Obs (SCPJU; 17.5 gae/ha): 80%
Visual Weed Control (%) - 25 DAA SCPJU Obs (SCPJU; 17.5 gae/ha): 80%
Visual Weed Control (%) Obs (SCPJU; 22 DAA, 10.6 gae/ha): 60%
Visual Weed Control (%) Obs (SCPJU; 25 DAA, 8.75 gae/ha): 65%
Visual Weed Control (%) Obs (SCPJU; 25 DAA, 17.5 gae/ha): 80%
Visual Weed Control (%) Obs (SCPJU; 25 DAA, 35 gae/ha): 95%
Visual Weed Control (%) - 25 DAA SCPJU Obs (SCPJU; 35 gae/ha): 95%
Visual Weed Control (%) Obs (PANDI): 60%
Visual Weed Control (%) - 21 DAA CYPES Obs (CYPES): 18%
Visual Weed Control (%) - 21 DAA CYPDI Obs (CYPDI; 4.38 gae/ha): 50%
Visual Weed Control (%) - 21 DAA CYPDI Obs (CYPDI; 8.75 gae/ha): 85%

COc1c(Cl)ccc(-c2nc(C(=O)OCc3ccccc3)c(Cl)c(N)c2F)c1F [Compound A Benzyl Ester, benzyl ester of 4-amino-3-chloro-5-fluoro-6-(4-chloro-2-fluoro-3-methoxy-phenyl)pyridine-2-carboxylic acid]
CENMA Obs (observed value) (CENMA; 4.4 gae/ha): 70%
CENMA Obs (observed value) (CENMA; 8.8 gae/ha): 85%
CENMA Obs (observed value) (CENMA; 17.5 gae/ha): 95%
Visual Weed Control (%) Obs (PANMI; 3.75 gae/ha): 15%
Visual Weed Control (%) Obs (PANMI; 7.5 gae/ha): 50%
Visual Weed Control (%) Obs (PANMI; 15 gae/ha): 75%
Visual Weed Control (%) - 21 DAA ISCRU Obs (ISCRU; 8 gae/ha): 20%
Visual Weed Control (%) - 21 DAA ISCRU Obs (ISCRU; 16 gae/ha): 0%
Weed Control Ob (VIOTR; after 20-22 days): 30%
VIOTR Ob (observed value) (VIOTR; alone, foliar, 20-22 days): 30%
STEME Ob (observed value) (STEME): 70%
AMARE Ob (observed value) (AMARE): 60%
SINAR Obs (observed value) (SINAR; 1.1 gae/ha): 72%
SINAR Obs (observed value) (SINAR; 2.2 gae/ha): 98%
SINAR Obs (observed value) (SINAR; 4.4 gae/ha): 80% and 100%
SINAR Obs (observed value) (SINAR; 8.8 gae/ha): 100%
SINAR Obs (observed value) (SINAR; 17.5 gae/ha): 100%
SONAR Obs (observed value) (SONAR; 4.4 gae/ha): 65%
SONAR Obs (observed value) (SONAR; 8.8 gae/ha): 100%
SONAR Obs (observed value) (SONAR; 17.5 gae/ha): 95%
SOOSS Obs (observed value) (SOOSS; 2.2 gae/ha): 15%
SOOSS Obs (observed value) (SOOSS; 17.5 gae/ha): 100%
Visual Weed Control (%) Obs (SORHA; 3.75 gae/ha): 0%
Visual Weed Control (%) Obs (SORHA; 7.5 gae/ha): 0%
Visual Weed Control (%) Obs (SORHA; 15 gae/ha): 10%
CIRAR Obs (observed value) (CIRAR; 2.2 gae/ha): 25%
CIRAR Obs (observed value) (CIRAR; 4.4 gae/ha): 30% and 25%
CIRAR Obs (observed value) (CIRAR; 8.8 gae/ha): 30%
CIRAR Obs (observed value) (CIRAR; 17.5 gae/ha): 30%
Weed Control Ob (BRSNN; after 20-22 days): 23%
BRSNN Ob (observed value) (BRSNN; alone, foliar, 20-22 days): 23%
Visual Weed Control (%) Obs (ELEIN; 14 DAA, 3.75 gae/ha): 0%
Visual Weed Control (%) Obs (ELEIN; 17 DAA, 7.5 gae/ha): 20%
TRFRE Obs (observed value) (TRFRE; 4.4 gae/ha): 0%
TRFRE Obs (observed value) (TRFRE; 8.8 gae/ha): 10%
TRFRE Obs (observed value) (TRFRE; 17.5 gae/ha): 30%
Weed Control Ob (POLCO; after 20-22 days): 50%
POLCO Ob (observed value) (POLCO; alone, foliar, 20-22 days): 50%
